Our source for the Kd values is ChEMBL document CHEMBL3991601, “The target landscape of clinical kinase drugs” (Science, 2017).

Structures are written as SMILES. The source made the active and inactive calls.

Test [1] addresses Serine/threonine-protein kinase 24 (Homo sapiens, UniProt Q9Y6E0).
The target in test [2] is T1, Isoleucine--tRNA ligase, mitochondrial (Homo sapiens, UniProt Q9NSE4).
T1 sequence (Q9NSE4 whole entry): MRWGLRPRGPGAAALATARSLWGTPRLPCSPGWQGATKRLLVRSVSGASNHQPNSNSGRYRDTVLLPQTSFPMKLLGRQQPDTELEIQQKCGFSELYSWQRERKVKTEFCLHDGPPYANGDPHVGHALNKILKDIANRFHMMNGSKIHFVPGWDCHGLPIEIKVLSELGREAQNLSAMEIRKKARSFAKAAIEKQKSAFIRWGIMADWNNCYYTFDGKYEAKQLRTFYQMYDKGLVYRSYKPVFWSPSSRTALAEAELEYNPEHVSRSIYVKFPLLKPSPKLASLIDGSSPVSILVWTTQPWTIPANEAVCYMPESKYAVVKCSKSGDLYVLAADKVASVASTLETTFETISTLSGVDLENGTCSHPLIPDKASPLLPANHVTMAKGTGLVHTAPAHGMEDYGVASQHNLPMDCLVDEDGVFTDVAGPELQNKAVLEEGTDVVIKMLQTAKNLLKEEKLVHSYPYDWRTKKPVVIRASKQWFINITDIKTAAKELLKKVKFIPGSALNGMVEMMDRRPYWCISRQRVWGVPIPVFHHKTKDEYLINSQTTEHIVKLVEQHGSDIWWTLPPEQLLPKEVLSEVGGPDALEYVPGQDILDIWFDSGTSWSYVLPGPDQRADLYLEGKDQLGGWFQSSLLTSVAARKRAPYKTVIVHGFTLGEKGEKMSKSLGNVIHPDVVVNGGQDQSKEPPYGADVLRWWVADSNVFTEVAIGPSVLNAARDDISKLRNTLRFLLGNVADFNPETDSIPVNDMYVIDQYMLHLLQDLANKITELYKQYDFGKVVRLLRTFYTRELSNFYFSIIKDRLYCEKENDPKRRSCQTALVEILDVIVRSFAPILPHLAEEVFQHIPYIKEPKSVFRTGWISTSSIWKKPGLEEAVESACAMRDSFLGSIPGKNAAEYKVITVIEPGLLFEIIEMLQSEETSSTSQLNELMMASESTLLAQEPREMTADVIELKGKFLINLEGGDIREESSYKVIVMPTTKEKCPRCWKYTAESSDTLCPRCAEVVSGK

Test [3] has as its target Cyclin-dependent kinase 17 (Homo sapiens, UniProt Q00537).
Test [4] has as its target Serine/threonine-protein kinase ATR (Homo sapiens, UniProt Q13535).
Test [5] has as its target Serine/threonine-protein kinase Nek7 (Homo sapiens, UniProt Q8TDX7).
The target in test [6] is Protein kinase C theta type (Homo sapiens, UniProt Q04759).
Sequence of Protein kinase C theta type (Q04759 whole entry): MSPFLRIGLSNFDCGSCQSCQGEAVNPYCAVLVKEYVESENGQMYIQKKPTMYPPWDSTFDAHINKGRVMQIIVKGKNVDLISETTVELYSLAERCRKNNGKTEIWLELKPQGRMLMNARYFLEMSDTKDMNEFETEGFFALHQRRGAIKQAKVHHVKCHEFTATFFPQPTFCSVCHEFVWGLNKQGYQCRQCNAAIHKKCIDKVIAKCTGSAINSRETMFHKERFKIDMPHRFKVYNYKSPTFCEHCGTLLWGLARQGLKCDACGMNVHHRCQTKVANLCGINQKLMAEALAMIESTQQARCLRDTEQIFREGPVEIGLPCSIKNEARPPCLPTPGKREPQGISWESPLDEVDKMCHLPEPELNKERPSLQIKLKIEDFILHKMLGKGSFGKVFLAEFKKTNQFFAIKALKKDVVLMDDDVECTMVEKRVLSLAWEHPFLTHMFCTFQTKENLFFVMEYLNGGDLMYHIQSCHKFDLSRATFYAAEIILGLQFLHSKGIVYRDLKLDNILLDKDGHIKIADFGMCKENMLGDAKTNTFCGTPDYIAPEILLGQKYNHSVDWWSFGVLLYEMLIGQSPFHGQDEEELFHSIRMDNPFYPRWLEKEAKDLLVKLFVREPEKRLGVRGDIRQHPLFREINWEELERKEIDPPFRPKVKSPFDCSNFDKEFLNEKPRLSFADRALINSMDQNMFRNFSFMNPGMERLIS
The target in test [7] is T2, Ephrin type-A receptor 1 (Homo sapiens, UniProt P21709).
T2 sequence (P21709 whole entry): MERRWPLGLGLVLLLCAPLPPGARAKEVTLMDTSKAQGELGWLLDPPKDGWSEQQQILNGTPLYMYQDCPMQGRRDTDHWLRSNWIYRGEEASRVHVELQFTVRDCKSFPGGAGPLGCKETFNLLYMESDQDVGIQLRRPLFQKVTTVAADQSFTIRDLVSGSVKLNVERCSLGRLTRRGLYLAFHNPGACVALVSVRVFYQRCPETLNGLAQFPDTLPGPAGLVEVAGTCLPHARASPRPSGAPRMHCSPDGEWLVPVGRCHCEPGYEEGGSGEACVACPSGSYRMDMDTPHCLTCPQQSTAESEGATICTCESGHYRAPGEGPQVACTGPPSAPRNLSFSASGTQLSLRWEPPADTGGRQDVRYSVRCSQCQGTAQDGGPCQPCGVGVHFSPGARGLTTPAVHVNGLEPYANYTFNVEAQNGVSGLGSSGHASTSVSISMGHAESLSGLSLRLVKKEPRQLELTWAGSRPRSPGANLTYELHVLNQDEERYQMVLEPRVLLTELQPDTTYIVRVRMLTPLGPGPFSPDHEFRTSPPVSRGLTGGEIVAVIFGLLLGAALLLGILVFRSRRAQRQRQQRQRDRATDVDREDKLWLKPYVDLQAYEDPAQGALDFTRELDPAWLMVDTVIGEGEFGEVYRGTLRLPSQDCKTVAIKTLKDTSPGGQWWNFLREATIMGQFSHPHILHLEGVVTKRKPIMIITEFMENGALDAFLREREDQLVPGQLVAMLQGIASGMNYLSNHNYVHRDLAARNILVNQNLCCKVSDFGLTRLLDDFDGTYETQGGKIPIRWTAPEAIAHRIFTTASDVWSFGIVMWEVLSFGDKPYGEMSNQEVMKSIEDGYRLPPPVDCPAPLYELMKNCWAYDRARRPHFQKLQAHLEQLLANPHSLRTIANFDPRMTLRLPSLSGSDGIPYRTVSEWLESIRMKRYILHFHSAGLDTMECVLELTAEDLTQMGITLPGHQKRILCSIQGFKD

The target in test [8] is Choline-phosphate cytidylyltransferase A (Homo sapiens, UniProt P49585).
Sequence of Choline-phosphate cytidylyltransferase A (P49585 whole entry): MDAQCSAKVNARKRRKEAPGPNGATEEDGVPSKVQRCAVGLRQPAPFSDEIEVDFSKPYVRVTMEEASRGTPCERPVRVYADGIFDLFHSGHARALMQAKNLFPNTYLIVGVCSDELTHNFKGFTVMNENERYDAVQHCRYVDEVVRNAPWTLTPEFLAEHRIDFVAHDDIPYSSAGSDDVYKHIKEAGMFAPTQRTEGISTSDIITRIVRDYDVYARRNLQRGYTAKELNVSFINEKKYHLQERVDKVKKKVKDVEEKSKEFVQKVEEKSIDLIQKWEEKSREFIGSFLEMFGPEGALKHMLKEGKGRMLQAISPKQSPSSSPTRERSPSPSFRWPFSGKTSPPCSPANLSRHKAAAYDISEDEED
Note: in the data inactive means no Kd found up to 30 µM.

Sequence of Serine/threonine-protein kinase Nek7 (Q8TDX7 whole entry): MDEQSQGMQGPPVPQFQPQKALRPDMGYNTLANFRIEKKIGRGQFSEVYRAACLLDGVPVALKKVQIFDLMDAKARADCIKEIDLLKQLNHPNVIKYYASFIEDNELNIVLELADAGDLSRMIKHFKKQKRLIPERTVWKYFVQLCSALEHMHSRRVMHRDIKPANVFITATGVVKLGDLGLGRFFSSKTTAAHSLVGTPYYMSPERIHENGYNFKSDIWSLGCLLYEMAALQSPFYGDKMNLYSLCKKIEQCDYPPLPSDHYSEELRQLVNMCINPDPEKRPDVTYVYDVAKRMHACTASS
Sequence of Serine/threonine-protein kinase ATR (Q13535 whole entry): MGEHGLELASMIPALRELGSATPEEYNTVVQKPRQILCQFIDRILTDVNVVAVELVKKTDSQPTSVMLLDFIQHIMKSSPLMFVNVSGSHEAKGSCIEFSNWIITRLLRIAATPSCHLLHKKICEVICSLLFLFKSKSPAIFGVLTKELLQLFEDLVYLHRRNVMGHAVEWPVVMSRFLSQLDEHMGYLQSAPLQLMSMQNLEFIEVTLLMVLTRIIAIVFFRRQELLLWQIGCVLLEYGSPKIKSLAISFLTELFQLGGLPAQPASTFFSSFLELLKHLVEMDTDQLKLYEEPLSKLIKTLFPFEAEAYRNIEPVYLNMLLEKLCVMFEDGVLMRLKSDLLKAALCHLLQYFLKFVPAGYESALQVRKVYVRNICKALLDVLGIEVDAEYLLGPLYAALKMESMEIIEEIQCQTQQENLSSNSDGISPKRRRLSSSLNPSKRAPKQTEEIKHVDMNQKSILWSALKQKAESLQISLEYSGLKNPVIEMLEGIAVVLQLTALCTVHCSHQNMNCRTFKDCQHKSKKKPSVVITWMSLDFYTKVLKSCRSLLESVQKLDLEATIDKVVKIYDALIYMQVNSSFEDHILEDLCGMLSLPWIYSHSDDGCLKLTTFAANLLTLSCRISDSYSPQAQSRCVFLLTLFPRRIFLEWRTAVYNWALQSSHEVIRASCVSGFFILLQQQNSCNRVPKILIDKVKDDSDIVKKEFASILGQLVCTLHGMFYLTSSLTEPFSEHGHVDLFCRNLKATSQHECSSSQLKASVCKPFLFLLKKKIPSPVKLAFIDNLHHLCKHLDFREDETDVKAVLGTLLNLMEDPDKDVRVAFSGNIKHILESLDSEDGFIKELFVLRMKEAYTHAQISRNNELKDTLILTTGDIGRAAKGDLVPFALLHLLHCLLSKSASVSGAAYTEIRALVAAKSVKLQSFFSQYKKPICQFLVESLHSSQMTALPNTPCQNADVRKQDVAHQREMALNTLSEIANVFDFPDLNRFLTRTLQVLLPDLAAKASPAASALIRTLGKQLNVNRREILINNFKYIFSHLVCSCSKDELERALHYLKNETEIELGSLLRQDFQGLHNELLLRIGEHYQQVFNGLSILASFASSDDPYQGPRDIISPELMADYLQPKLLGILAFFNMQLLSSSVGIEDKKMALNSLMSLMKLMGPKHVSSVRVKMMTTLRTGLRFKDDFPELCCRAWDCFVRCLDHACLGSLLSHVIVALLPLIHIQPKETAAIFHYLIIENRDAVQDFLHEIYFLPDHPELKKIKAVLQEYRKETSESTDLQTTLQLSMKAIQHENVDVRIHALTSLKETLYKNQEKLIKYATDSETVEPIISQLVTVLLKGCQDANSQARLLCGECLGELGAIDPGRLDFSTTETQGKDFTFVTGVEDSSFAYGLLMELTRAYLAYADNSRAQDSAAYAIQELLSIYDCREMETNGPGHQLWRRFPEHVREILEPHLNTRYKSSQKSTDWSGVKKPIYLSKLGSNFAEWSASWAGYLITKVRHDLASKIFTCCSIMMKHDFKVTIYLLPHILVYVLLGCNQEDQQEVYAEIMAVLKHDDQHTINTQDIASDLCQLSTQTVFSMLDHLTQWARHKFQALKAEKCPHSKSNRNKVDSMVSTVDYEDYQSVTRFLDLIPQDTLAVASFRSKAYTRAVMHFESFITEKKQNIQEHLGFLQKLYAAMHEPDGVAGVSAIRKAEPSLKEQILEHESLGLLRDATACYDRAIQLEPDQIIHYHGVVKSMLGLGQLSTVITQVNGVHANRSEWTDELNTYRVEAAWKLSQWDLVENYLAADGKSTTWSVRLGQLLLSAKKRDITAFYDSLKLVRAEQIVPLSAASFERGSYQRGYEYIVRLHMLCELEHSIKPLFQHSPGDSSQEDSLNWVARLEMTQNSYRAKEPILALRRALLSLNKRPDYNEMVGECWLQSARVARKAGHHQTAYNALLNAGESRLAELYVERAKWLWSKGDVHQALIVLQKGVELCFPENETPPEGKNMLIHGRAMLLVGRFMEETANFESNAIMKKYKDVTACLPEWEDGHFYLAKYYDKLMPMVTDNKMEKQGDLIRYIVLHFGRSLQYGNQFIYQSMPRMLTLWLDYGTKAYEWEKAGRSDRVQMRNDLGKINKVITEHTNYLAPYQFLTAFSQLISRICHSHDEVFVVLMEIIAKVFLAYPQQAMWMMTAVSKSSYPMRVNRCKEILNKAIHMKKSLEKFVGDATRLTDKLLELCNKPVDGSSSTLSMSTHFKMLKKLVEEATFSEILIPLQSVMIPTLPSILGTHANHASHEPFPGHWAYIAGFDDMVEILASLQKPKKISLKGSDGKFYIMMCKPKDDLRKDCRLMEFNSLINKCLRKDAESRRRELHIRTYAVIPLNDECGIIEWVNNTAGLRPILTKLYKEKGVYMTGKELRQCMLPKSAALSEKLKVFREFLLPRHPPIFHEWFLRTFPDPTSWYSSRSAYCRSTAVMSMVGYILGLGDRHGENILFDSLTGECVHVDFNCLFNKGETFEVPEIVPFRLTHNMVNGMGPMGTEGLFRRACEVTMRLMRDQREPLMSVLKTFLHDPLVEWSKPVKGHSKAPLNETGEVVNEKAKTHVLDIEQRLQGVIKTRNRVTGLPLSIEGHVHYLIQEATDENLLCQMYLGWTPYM
Sequence of Cyclin-dependent kinase 17 (Q00537 whole entry): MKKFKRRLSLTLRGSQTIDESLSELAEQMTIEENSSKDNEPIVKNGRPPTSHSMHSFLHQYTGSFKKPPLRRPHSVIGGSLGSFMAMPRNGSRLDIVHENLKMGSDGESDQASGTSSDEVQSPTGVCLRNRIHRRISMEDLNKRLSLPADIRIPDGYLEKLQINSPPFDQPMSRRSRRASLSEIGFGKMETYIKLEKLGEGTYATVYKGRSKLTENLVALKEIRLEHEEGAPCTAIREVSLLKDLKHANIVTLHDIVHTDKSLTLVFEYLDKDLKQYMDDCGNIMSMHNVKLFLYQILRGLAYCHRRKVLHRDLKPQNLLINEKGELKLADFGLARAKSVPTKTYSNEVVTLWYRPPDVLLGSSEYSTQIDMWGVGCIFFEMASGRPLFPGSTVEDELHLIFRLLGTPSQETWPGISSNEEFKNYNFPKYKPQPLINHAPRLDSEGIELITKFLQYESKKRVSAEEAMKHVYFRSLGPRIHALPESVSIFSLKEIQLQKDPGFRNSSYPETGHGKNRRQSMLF
Sequence of Serine/threonine-protein kinase 24 (Q9Y6E0 whole entry): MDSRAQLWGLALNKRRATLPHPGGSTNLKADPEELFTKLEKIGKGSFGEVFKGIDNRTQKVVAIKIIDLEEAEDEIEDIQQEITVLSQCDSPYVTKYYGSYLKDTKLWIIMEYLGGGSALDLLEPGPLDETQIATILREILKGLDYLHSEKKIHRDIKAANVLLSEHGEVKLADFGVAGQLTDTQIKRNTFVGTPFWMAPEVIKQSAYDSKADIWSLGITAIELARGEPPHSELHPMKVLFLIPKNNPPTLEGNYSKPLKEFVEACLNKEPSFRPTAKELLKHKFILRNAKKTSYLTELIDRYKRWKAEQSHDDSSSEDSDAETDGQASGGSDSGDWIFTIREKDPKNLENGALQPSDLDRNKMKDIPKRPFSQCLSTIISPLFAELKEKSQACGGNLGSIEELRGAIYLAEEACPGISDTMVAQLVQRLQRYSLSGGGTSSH

For the molecule `O[C@H]1CC[C@H](Nc2ncc3nc(Nc4c(F)cc(F)cc4F)n([C@H]4CCOC4)c3n2)CC1` [TANZISERTIB], the Kd in test [1], in test [2], in test [3], in test [4], in test [5] and in test [6] was > 30 µM (inactive) each time. For the same molecule, in test [7], the Kd was > 30 µM (inactive).

Consider `COc1cccc2cc(-c3nc([C@H]4CC[C@H](C(=O)O)CC4)n4ncnc(N)c34)[nH]c12` [OSI-027], for which the Kd in test [1], in test [2], in test [6] and in test [8] was > 30 µM (inactive) each time.

Regarding `Cn1c(=O)n(-c2ccc(C(C)(C)C#N)cc2)c2c3cc(-c4cnc5ccccc5c4)ccc3ncc21` [DACTOLISIB], the Kd in test [1], in test [2], in test [3], in test [4], in test [7] and in test [8] was > 30 µM (inactive) in each case.

With `O=C(O)c1ccc2c(c1)nc(Nc1cccc(Cl)c1)c1ccncc12` [SILMITASERTIB], the Kd in test [1], in test [3], in test [4] and in test [5] was > 30 µM (inactive) each time.

For the molecule `COc1cc2ncnc(Nc3ccc(O)cc3)c2cc1OC` [WHI-P131], the Kd in test [1], in test [3], in test [4], in test [5], in test [6] and in test [7] was > 30 µM (inactive) throughout.

On to `O=C(Nc1ccc(OC(F)(F)F)cc1)c1sccc1NCc1ccnc2ccccc12` [OSI-930], for which the Kd in test [2], in test [3], in test [4], in test [6], in test [7] and in test [8] was > 30 µM (inactive) throughout.

In the case of `O=S(=O)(c1cccc2c(O)nccc12)N1CCCNCC1` [HYDROXYFASUDIL], the Kd in test [1], in test [3], in test [4], in test [5], in test [6] and in test [7] was > 30 µM (inactive) throughout.

Turning to `COc1cc2c(Oc3ccc4[nH]c(C)cc4c3F)ncnc2cc1OCCCN1CCCC1` [CEDIRANIB], the Kd in test [2], in test [4] and in test [8] was > 30 µM (inactive) each time.

On to `Cn1cnc2c(F)c(Nc3ccc(Br)cc3Cl)c(C(=O)NOCCO)cc21` [SELUMETINIB], for which the Kd in test [2] and in test [8] was > 30 µM (inactive) each time.

On to `C[C@@H]1COC(Nc2ccc3ncnc(Nc4ccc(OCc5nccs5)c(Cl)c4)c3c2)=N1` [VARLITINIB], for which the Kd in test [1], in test [3], in test [4], in test [5], in test [6] and in test [7] was > 30 µM (inactive) throughout.

For the molecule `NC(=O)c1ccc(N(C(N)=O)c2c(F)cccc2F)nc1-c1ccc(F)cc1F` [VX-702], the Kd in test [1], in test [3], in test [4], in test [5], in test [6] and in test [7] was > 30 µM (inactive) throughout.

Take `CC1(C)CNc2cc(NC(=O)c3cccnc3NCc3ccncc3)ccc21` [MOTESANIB]: in test [8], the Kd is > 30 µM (inactive).

`Cn1cc(-c2[nH]c3cc(NC(=O)[C@H](N)C4CCCCC4)cc4c3c2C=NNC4=O)cn1`: the Kd in test [1], in test [2], in test [3], in test [4], in test [5] and in test [6] was > 30 µM (inactive) in each case. For the same molecule, the Kd in test [7] is > 30 µM (inactive).

Turning to `NC[C@@](O)(c1ccc(Cl)cc1)c1ccc(-c2cn[nH]c2)cc1` [AT-13148], the Kd in test [2], in test [6] and in test [8] was > 30 µM (inactive) throughout.

For `CN(C)C/C=C/C(=O)Nc1cc2c(Nc3ccc(F)c(Cl)c3)ncnc2cc1O[C@H]1CCOC1` [AFATINIB], the Kd in test [8] is > 30 µM (inactive).

Turning to `CCOc1ccn(-c2ccc(F)cc2)c(=O)c1C(=O)Nc1ccc(Oc2ccnc(N)c2Cl)c(F)c1` [BMS-777607], the Kd in test [2], in test [4], in test [5] and in test [6] was > 30 µM (inactive) in each case.

Regarding `COc1cc(F)c(F)c(Nc2ccc(I)cc2F)c1NS(=O)(=O)C1(C[C@H](O)CO)CC1` [REFAMETINIB], the Kd in test [2], in test [3], in test [4], in test [5], in test [6] and in test [7] was > 30 µM (inactive) throughout.

Turning to `CCc1cc2c(cc1N1CCC(N3CCOCC3)CC1)C(C)(C)c1[nH]c3cc(C#N)ccc3c1C2=O` [ALECTINIB], the Kd is > 30 µM (inactive) in test [3]; > 30 µM (inactive) in test [4]; > 30 µM (inactive) in test [6]; 0.193 µM (active) in test [7]; > 30 µM (inactive) in test [8].

On to `Cc1cc(-c2cc(OC(=O)c3ccccc3)ccc2Cl)cc2nnc(Nc3ccc(OCCN4CCCC4)cc3)nc12` [TG100-801], for which the Kd in test [3], in test [4], in test [5] and in test [6] was > 30 µM (inactive) in each case.

Turning to `C[C@]1(O)C[C@@H](c2nc(-c3ccc4ccc(-c5ccccc5)nc4c3)c3c(N)nccn32)C1` [LINSITINIB], the Kd in test [3], in test [6] and in test [8] was > 30 µM (inactive) throughout.

With `CNC(=O)c1cccc(-c2ccc3c(N4CCOC[C@@H]4C)nc(N4CCOC[C@@H]4C)nc3n2)c1` [VISTUSERTIB], the Kd in test [2], in test [3], in test [4], in test [6], in test [7] and in test [8] was > 30 µM (inactive) each time.

For `O=C(NC[C@H](O)CO)c1ccncc1Nc1ccc(I)cc1F` [PIMASERTIB], the Kd is > 30 µM (inactive) in test [1]; 0.011 µM in test [2]; > 30 µM (inactive) in test [3]; > 30 µM (inactive) in test [6]; > 30 µM (inactive) in test [8].
